Experimental data: patent US8058243B2, “Method for treating a brain cancer with ifenprodil” (HSC Research and Development Limited Partnership, priority 2006, dated 2011)
Structures can show the parent of a compound that is named as a salt. Where two headings read alike, the source gives them in different places.

System: murine neural precursor cells (neurosphere cultures)
Assay: HTS of LOPAC library against secondary neurosphere cultures, MTT proliferation assay at 3 μM, day 7 (z score, P value)
Type: cell-based, mouse
[1] = LOPAC screen, neurosphere MTT proliferation, 3 μM, day 7
[2] = yes/no: significantly inhibited neurosphere proliferation (P<0.01) in primary screen
[3] = LOPAC library screen, 3 μM, MTT, neurosphere cultures
[4] = LOPAC library screen at 3 μM, secondary neurosphere cultures, MTT
[5] = LOPAC primary screen, neurosphere MTT proliferation, 3 μM, day 7
[6] = yes/no: significantly inhibited neurosphere proliferation (P<0.01) in the primary screen
[7] = LOPAC library screen, 3 μM, MTT, secondary neurosphere cultures, day 7

SMILES	Z score [1]	Activity [2]	Z Score [3]	also measured
C#C[C@]1(O)CC[C@H]2[C@@H]3CCC4=Cc5oncc5C[C@]4(C)[C@H]3CC[C@@]21C [Danazol]	2.152	no		Z Score (LOPAC library screen at 3 μM, MTT, secondary neurosphere cultures, screened in singlets): 2.152
O=C1CN(/N=C/c2ccc(-c3ccc([N+](=O)[O-])cc3)o2)C(O)=N1 [Dantrolene sodium]	0.798		0.7985	Activity: no
O=c1ccc2ccc(O)c(O)c2o1 [Daphnetin]				Activity: no; Z Score (168 h, 3 µM): −0.9798; Z score (168 h, 3 µM): −0.980
N=C(N)N1CCc2ccccc2C1 [Debrisoquin sulfate]	−0.303	no		Z Score [4]: −0.3034
C[N+](C)(C)CCCCCCCCCC[N+](C)(C)C.[Br-].[Br-] [Decamethonium dibromide]				Z Score: −1.572; Z score [5]: −1.572; Activity [6]: no
CN(C)[C@@H]1C(O)=C(C(N)=O)C(=O)[C@@]2(O)C(O)=C3C(=O)c4c(O)ccc(Cl)c4[C@@H](O)[C@H]3C[C@@H]12 [Demeclocycline hydrochloride]	−0.065	no	−0.06452	
CN(N=O)c1cc(O)ccc1O [Dephostatin]	0.621	no		Z Score: 0.6209
Cc1cc(N)c2ccccc2[n+]1CCCCCCCCCC[n+]1c(C)cc(N)c2ccccc21 [Dequalinium (29), Dequalinium, reference compound]				Z Score [7]: −9.54; Z score [5]: −9.540; Activity [6]: yes
Cc1cc(N)c2ccccc2[n+]1CCCCCCCCCCCCCC[n+]1c(C)cc(N)c2ccccc21 [Dequalinium analog, C-14 linker]				Z Score [7]: −11.27; Z score [5]: −11.274; Activity [6]: yes
CNCCCN1c2ccccc2CCc2ccccc21 [Desipramine hydrochloride]	0.123	no	0.1226	
O=c1c2ccccc2[nH]c(=S)n1CCN1CCC(=C(c2ccc(F)cc2)c2ccc(F)cc2)CC1 [Diacylglycerol Kinase Inhibitor II]	−1.390	no		Z Score [7]: −1.39
Cc1nc2sccn2c(=O)c1CCN1CCC(=C(c2ccccc2)c2ccc(F)cc2)CC1 [Diacylglycerol kinase inhibitor I]	−1.782	no		Z Score: −1.782
CC1=NS(=O)(=O)c2cc(Cl)ccc2N1 [Diazoxide]	0.045	no	0.04511	
O=C(O)Cc1ccccc1Nc1c(Cl)cccc1Cl [Diclofenac sodium]	0.299	no	0.2988	
CCN(CC)CCOC(=O)C1(C2CCCCC2)CCCCC1 [Dicyclomine hydrochloride]				Z Score (168 h, 3 µM): 1.414; Z score (168 h, 3 µM): 1.414
O=C(O)CN(CCN(CC(=O)O)CC(=O)O)CCN(CC(=O)O)CC(=O)O [Diethylenetriaminepentaacetic acid]				Z Score [4]: −0.4576; Z score [5]: −0.458; Activity [6]: no
Br.CO[C@H]1CC=C2CCN3CCC4=C(CC(=O)OC4)[C@]23C1 [Dihydro-beta-erythroidine hydrobromide]		no		Z Score: −1.788; Z score [5]: −1.788
CN1C[C@H](C(=O)N[C@]2(C)O[C@@]3(O)[C@@H]4CCCN4C(=O)[C@H](Cc4ccccc4)N3C2=O)C[C@@H]2c3cccc4[nH]cc(c34)C[C@H]21 [Dihydroergotamine methanesulfonate]	−0.779	no		Z Score [4]: −0.7795
CC(C)[C@H]1CN[C@H](C(=O)O)[C@H]1CC(=O)O [Dihydrokainic acid]	1.329	no		Z Score: 1.329
C[C@@H]1O[C@@H](O[C@H]2C[C@@H](O)[C@]3(CO)[C@H]4[C@H](O)C[C@]5(C)[C@@H]([C@@H]6COC(=O)C6)CC[C@]5(O)[C@@H]4CC[C@]3(O)C2)[C@H](O)[C@H](O)[C@H]1O [Dihydroouabain]	0.203	no		Z Score: 0.2034
COc1cc(C(=O)OCCCN2CCCN(CCCOC(=O)c3cc(OC)c(OC)c(OC)c3)CC2)cc(OC)c1OC [Dilazep hydrochloride]	0.245	no	0.2448	
COc1ccc([C@@H]2Sc3ccccc3N(CCN(C)C)C(=O)[C@@H]2OC(C)=O)cc1 [Diltiazem hydrochloride]	0.540		0.5395	Activity: no
CN(C)CCOC(c1ccccc1)c1ccccc1 [Diphenhydramine hydrochloride]			0.8449	Z score [5]: 0.845; Activity [6]: no
CCCN(CCC)CCc1ccc(O)c(O)c1 [Dipropyldopamine hydrobromide]	−1.346			Z Score: −1.346
OCCN(CCO)c1nc(N2CCCCC2)c2nc(N(CCO)CCO)nc(N3CCCCC3)c2n1 [Dipyridamole]	−0.727			Activity: no; Z Score [4]: −0.7267
CC(C)N(CCC(C(N)=O)(c1ccccc1)c1ccccn1)C(C)C (stereo not shown) [Disopyramide phosphate]			−0.07187	Z score [5]: −0.072; Activity [6]: no
